Experiments:
[1] = tested on: B. japonicum (strain USDA 110); assay: Growth of B. japonicum in defined liquid media with glyphosate up to 10 mM (Example 6); format: cell-based; details: Bradyrhizobium japonicum, 216 h, read-out: Growth inhibition compared to the control without glyphosate
Experimental: The defined media consists of 25 mM arabinose as the carbon source, 15 mM (NH4)2SO4, 0.7 mM MgSO4, 0.4 mM CaCl2, 20 mM NaCl, 2.5 mM K2HPO4, and 40 mM MOPS (3-[N-morpholino]propane-sulfonic acid), at pH 6.8, plus the appropriate micronutrients. […] These colonies were removed and stored in frozen culture in 50% sterile glycerol.

[2] = tested on: B. japonicum (strain USDA 110); assay: B. japonicum growth in culture with increasing glyphosate (Example 12); format: cell-based; details: Bradyrhizobium japonicum, 168 h; read-out: Growth inhibition relative to the control
Experimental: 0.1, 1, 3, and 5 mM. […] At concentrations as low as 0.01 mM, B. japonicum growth was inhibited 18% relative to the control (FIG. 4). At a concentration of 0.1 mM, growth was inhibited approximately 40% relative to the control.

[3] = tested on: glyphosate resistant soybean cultivar DK5961RR inoculated with B. japonicum (USDA 110); assay: Seed-imbibed glyphosate: nodulation, greenhouse experiment; format: in vivo
Experimental: (§1) Pots 15-cm in diameter, with a total volume of 1.3 L were filled with a peat based potting mix that was saturated with a nitrogen-free nutrient solution. Six seeds from a particular glyphosate-concentration seed soak were planted in each pot and 1 ml of B. japonicum (USDA 110) containing approximately 4.24×10^6 cells was applied evenly across the surface and washed into the potting mix with 250 ml of minus N nutrients. Plants were thinned to one per pot after emergence. Day and night temperatures were approximately 30 and 24 C, respectively, and natural illumination was supplemented with 1000 W metal-halide lamps for a day length of 16 hours. […] Root nodules were scanned and images were used to determine nodule number and size as influenced by glyphosate treatment. The […] was repeated in a controlled environmental growth chamber with six replications. Growth chamber temperature was a constant 25 C and light and dark periods were 16 and 8 hours, respectively. Plants were harvested at 15 days after planting and sectioned as previously described (Example 1).

[4] = tested on: glyphosate resistant soybean cultivar DK5961RR inoculated with B. japonicum (USDA 110); assay: Seed-imbibed glyphosate: nodulation, growth chamber experiment; format: in vivo; details: glyphosate concentrations greater than 12 mM
Experimental: as §1

[5] = tested on: selected B. japonicum cultures (from USDA 110); assay: Growth in Tulley's media with 5 mM glyphosate, colonies selected in Example 6 (Example 7); format: cell-based, Bradyrhizobium japonicum
Experimental: Duplicate cultures were evaluated from each of the original colony selections. […] The cultures were allowed to grow for 14 days, and then the OD of each culture was measured.

[6] = tested on: TV5866RR soybean inoculated with B. japonicum (USDA 110); assay: Growth cabinet time course of nodule acetylene reduction activity (ARA); format: in vivo, soybean (Glycine max); details: 1.68 kg ha^−1 at 5, 12, and 19 DAE
Description: The time course of nodule activity from 14 to 28 DAE was followed in a series of four runs of an experiment in a growth cabinet. Soybean seeds were sown in N-free potting media in pots constructed of 15-cm diameter polyvinyl chloride pipe. These pipes allow nondestructive measurement of nodule activity by the acetylene reduction assay as described by Purcell et al. (1997). Seeds were inoculated with B. japonicum (USDA 110), and pots were supplied with N-free nutrients. […] Acetylene reduction activity (ARA) was measured at 14, 21, and 28 DAE by passing a 9:1 air to acetylene mixture through the pots at 0.5 L min^−1. After 8 min., 1-mL aliquots of the effluent gas stream were collected from each pot and analyzed for ethylene by gas chromatography. Nitrogenase activity for glyphosate-treated and control plants was similar at 14 DAE, except for Run 4 when ARA was lower for glyphosate-treated plants (Table 5). ARA was 12 to 20% lower for glyphosate-treated plants at 21 DAE in three of the four runs. By 28 DAE, ARA was lower in glyphosate-treated plants only in Run 2 and was greater than control plants in Run 1.

[7] = tested on: soybean cultivar DK5961RR; assay: Greenhouse Example 3: response to glyphosate with and without available soil nitrogen; format: in vivo, soybean (Glycine max)
Experimental: Treatments were a factorial arrangement of two harvest dates, plus and minus soil nitrogen, and plus and minus glyphosate application. Experimental conditions were similar to those described for Examples 1 and 2, including timing of nutrient applications. […] Plants were harvested at 19 and 40 DAE as described previously. For the plus nitrogen treatment, plants harvested at 19 and 40 DAE received in the nutrient solution at total of 150 and 300 mg N as NO3^−1, respectively. The experiment was a randomized complete block with six replications and was repeated.

[8] = DK5961RR, Harvest 1 (19 DAE), soil nitrogen no
[9] = DK5961RR, Harvest 1 (19 DAE), soil nitrogen yes
[10] = DK5961RR, Harvest 2 (40 DAE), averaged over soil nitrogen treatments

SMILES: O=C(O)CNCP(=O)(O)O [glyphosate, N-(phosphonomethyl)glycine]
- inhibition at 10000 µM [1]: ~90%
- inhibition at 10 µM [2]: 18%
- inhibition at 100 µM [2]: ~40%
- Reduction in nodule number compared to the control ([3]; 3.1 mM glyphosate seed treatment, 10 DAP): ~30%
- Nodule number ([3]; glyphosate concentrations greater than 3.1 mM): increased to values similar to that of plants from the control treatment
- Average diameter of individual nodules ([3]; increasing glyphosate concentrations, 17 DAP): tended to decrease
- Nodule number [4]: progressively decreased
- Growth, % of wild type USDA 110 in the absence of glyphosate ([5]; 45 selected colonies averaged, liquid culture, 14 days): 27%
- OD600 ([5]; Selected cultures, averaged over all strains, after 14 days): 0.36 b^
- Acetylene reduction activity (mean ± SE) ([6]; Run 1, 14 DAE): 33 ± 2 μmol C2H4 plant^−1 h^−1
- Acetylene reduction activity (mean ± SE) ([6]; Run 1, 21 DAE): 45 ± 3 μmol C2H4 plant^−1 h^−1
- Acetylene reduction activity (mean ± SE) ([6]; Run 1, 28 DAE): 76 ± 7 μmol C2H4 plant^−1 h^−1
- Acetylene reduction activity (mean ± SE) ([6]; Run 2, 14 DAE): 23 ± 3 μmol C2H4 plant^−1 h^−1
- Acetylene reduction activity (mean ± SE) ([6]; Run 2, 21 DAE): 53 ± 6 μmol C2H4 plant^−1 h^−1
- Acetylene reduction activity (mean ± SE) ([6]; Run 2, 28 DAE): 70 ± 4 μmol C2H4 plant^−1 h^−1
- Acetylene reduction activity (mean ± SE) ([6]; Run 3, 14 DAE): 57 ± 13 μmol C2H4 plant^−1 h^−1
- Acetylene reduction activity (mean ± SE) ([6]; Run 3, 21 DAE): 75 ± 9 μmol C2H4 plant^−1 h^−1
- Acetylene reduction activity (mean ± SE) ([6]; Run 3, 28 DAE): 115 ± 13 μmol C2H4 plant^−1 h^−1
- Acetylene reduction activity (mean ± SE) ([6]; Run 4, 14 DAE): 28 ± 4 μmol C2H4 plant^−1 h^−1
- Acetylene reduction activity (mean ± SE) ([6]; Run 4, 21 DAE): 56 ± 3 μmol C2H4 plant^−1 h^−1
- Acetylene reduction activity (mean ± SE) ([6]; Run 4, 28 DAE): 107 ± 14 μmol C2H4 plant^−1 h^−1
- Plant biomass or nitrogen content effect ([7]; DK5961RR, 19 DAE, without soil nitrogen): did not decrease
- Biomass Root [7, 8]: 0.30b g plant^−1
- Biomass Shoot [7, 8]: 0.63bc g plant^−1
- Nitrogen Root [7, 8]: 7.53b mg plant^−1
- Nitrogen Shoot [7, 8]: 22.2c mg plant^−1
- Biomass Shoot [7, 9]: 0.58c g plant^−1
- Nitrogen Root [7, 9]: 5.77c mg plant^−1
- Nitrogen Shoot [7, 9]: 31.0b mg plant^−1
- Biomass Root ([7]; DK5961RR, Harvest 1 (19 DAE), soil nitrogen yes, 1.68 kg ha^−1 5 and 12 DAE): 0.20c g plant^−1
- Biomass Root [7, 10]: 0.48 g plant^−1
- Biomass Shoot [7, 10]: 1.81 g plant^−1
- Nitrogen Root [7, 10]: 11.1 mg plant^−1
- Nitrogen Shoot [7, 10]: 70.7 mg plant^−1
- Shoot nitrogen content decrease ([7]; Harvest 2 (40 DAE), averaged across soil nitrogen treatments): 13%
